Assays:
S. aureus Newman [1] = assay: Bliss interaction score (quartile over a dose matrix) (fitness difference); higher = more antagonism (negative = synergy)
Summary of the method: (§1)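 Growth was read as OD595 when cultures entered stationary phase, and each value was divided by the plate's robust no-drug mean and capped at 1. This normalised ratio is the fitness value, and fitness for each single drug came from the combination data. The Bliss score subtracts the expected fitness, taken as the product, from the observed fitness and is given as quartiles across technical, biological and donor/recipient replicates.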

S. pneumoniae D39V [2] = assay: as above
Summary of the method: as §1

B. subtilis 168 [3] = assay: as above
Summary of the method: as §1

S. aureus DSM 20231 [4] = assay: as above
Summary of the method: as §1

S. aureus Newman [5] = assay: fitness (endpoint OD595 vs no drug) (fraction); higher = more growth
Summary of the method: (§2)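 Fitness is computed from the optical density at which cultures reach stationary phase, divided by the robust mean of no-drug control wells. Any value above 1 is set to 1. Cultures started at OD595 0.01 in 384-well plates with TSB, LB Lennox or CY at 37 °C, and OD595 was read every 30 min for 14 h against a first-reading background.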

S. pneumoniae D39V [6] = assay: as above
Summary of the method: as §2

B. subtilis 168 [7] = assay: as above
Summary of the method: as §2

S. aureus DSM 20231 [8] = assay: as above
Summary of the method: as §2
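For Bliss interaction score (quartile over a dose matrix) in this document: first quartile when negative (synergy) and third quartile when positive (antagonism).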
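For fitness (endpoint OD595 vs no drug) in this document: OD595 on entry to stationary phase over no-drug wells; at most 1.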

CCCCCCCCCC(=O)N[C@@H](Cc1c[nH]c2ccccc12)C(=O)N[C@H](CC(N)=O)C(=O)N[C@@H](CC(=O)O)C(=O)N[C@@H]1C(=O)NCC(=O)N[C@@H](CCCN)C(=O)N[C@@H](CC(=O)O)C(=O)N[C@H](C)C(=O)N[C@@H](CC(=O)O)C(=O)NCC(=O)N[C@H](CO)C(=O)N[C@@H]([C@H](C)CC(=O)O)C(=O)N[C@@H](CC(=O)c2ccccc2N)C(=O)O[C@@H]1C [Daptomycin] + COc1ccc(C[C@H](N)C(=O)N[C@H]2[C@@H](O)[C@H](n3cnc4c(N(C)C)ncnc43)O[C@@H]2CO)cc1 [Puromycin]
Settings | Bliss interaction score
B. subtilis 168 [3] | 0.0496
S. aureus DSM 20231 [4] | 0.0803
S. aureus Newman [1] | 0.0477
S. pneumoniae D39V [2] | -0.0975

fitness
Settings | first compound 0.125 µg/mL | first compound 0.25 µg/mL | first compound 0.5 µg/mL | first compound 1 µg/mL | first compound 2 µg/mL | first compound 4 µg/mL
B. subtilis 168 [7], partner 0.39 µg/mL | 0.937 | 0.932 | 0.894 | – | – | –
B. subtilis 168 [7], partner 0.78 µg/mL | 0.912 | 0.91 | 0.864 | – | – | –
B. subtilis 168 [7], partner 1.56 µg/mL | 0.906 | 0.916 | 0.841 | – | – | –
S. aureus DSM 20231 [8], partner 0.39 µg/mL | – | – | 0.993 | ≥ 1 | ≥ 1 | –
S. aureus DSM 20231 [8], partner 0.78 µg/mL | – | – | ≥ 1 | 0.977 | ≥ 1 | –
S. aureus DSM 20231 [8], partner 1.56 µg/mL | 0.953 | ≥ 1 | ≥ 1 | 0.989 | 0.957 | –
S. aureus Newman [5], partner 0.39 µg/mL | 0.998 | 1 | 0.997 | – | – | –
S. aureus Newman [5], partner 0.78 µg/mL | 0.992 | 0.989 | 0.995 | – | – | –
S. aureus Newman [5], partner 1.56 µg/mL | ≥ 1 | 0.983 | ≥ 1 | – | – | –
S. pneumoniae D39V [6], partner 1 µg/mL | – | – | – | 0.939 | 0.969 | 0.922
S. pneumoniae D39V [6], partner 2 µg/mL | – | – | – | 0.892 | 0.876 | 0.909
S. pneumoniae D39V [6], partner 4 µg/mL | – | – | – | 0.32 | – | –

fitness, one replicate
Settings | partner 0.39 µg/mL | partner 0.78 µg/mL | partner 1.56 µg/mL | partner 3.12 µg/mL | partner 6.24 µg/mL
B. subtilis 168 [7], first compound 1 µg/mL | 0.719 | 0.737 | 0.749 | – | –
S. aureus DSM 20231 [8], first compound 0.125 µg/mL | 0.935 | ≥ 1 | – | 0.968 | 0.865
S. aureus DSM 20231 [8], first compound 0.25 µg/mL | ≥ 1 | ≥ 1 | – | 0.932 | 0.81
S. aureus DSM 20231 [8], first compound 0.5 µg/mL | – | – | – | 0.962 | 0.762

CCCCCCCCCC(=O)N[C@@H](Cc1c[nH]c2ccccc12)C(=O)N[C@H](CC(N)=O)C(=O)N[C@@H](CC(=O)O)C(=O)N[C@@H]1C(=O)NCC(=O)N[C@@H](CCCN)C(=O)N[C@@H](CC(=O)O)C(=O)N[C@H](C)C(=O)N[C@@H](CC(=O)O)C(=O)NCC(=O)N[C@H](CO)C(=O)N[C@@H]([C@H](C)CC(=O)O)C(=O)N[C@@H](CC(=O)c2ccccc2N)C(=O)O[C@@H]1C [Daptomycin] + COc1cccc2c1C(=O)c1c(O)c3c(c(O)c1C2=O)C[C@@](O)(C(=O)CO)C[C@@H]3O[C@H]1C[C@H](N)[C@H](O)[C@H](C)O1 [Doxorubicin]
Settings | Bliss interaction score
B. subtilis 168 [3] | 0.0744
S. aureus DSM 20231 [4] | 0.0493
S. aureus Newman [1] | -0.0594
S. pneumoniae D39V [2] | 0.0772

Settings | fitness
B. subtilis 168 [7], first compound 0.125 µg/mL, partner 0.625 µg/mL | 0.93
B. subtilis 168 [7], first compound 0.125 µg/mL, partner 1.25 µg/mL | 0.905
B. subtilis 168 [7], first compound 0.125 µg/mL, partner 2.5 µg/mL | 0.628
B. subtilis 168 [7], first compound 0.25 µg/mL, partner 0.625 µg/mL | 0.93
B. subtilis 168 [7], first compound 0.25 µg/mL, partner 1.25 µg/mL | 0.911
B. subtilis 168 [7], first compound 0.5 µg/mL, partner 0.625 µg/mL | 0.84
S. aureus DSM 20231 [8], first compound 0.5 µg/mL, partner 0.625 µg/mL | 0.91
S. aureus DSM 20231 [8], first compound 0.5 µg/mL, partner 1.25 µg/mL | 0.935
S. aureus DSM 20231 [8], first compound 0.5 µg/mL, partner 2.5 µg/mL | 0.829
S. aureus DSM 20231 [8], first compound 1 µg/mL, partner 0.625 µg/mL | 0.887
S. aureus DSM 20231 [8], first compound 1 µg/mL, partner 1.25 µg/mL | 0.961
S. aureus DSM 20231 [8], first compound 1 µg/mL, partner 2.5 µg/mL | 0.852
S. aureus DSM 20231 [8], first compound 2 µg/mL, partner 0.625 µg/mL | 0.926
S. aureus DSM 20231 [8], first compound 2 µg/mL, partner 1.25 µg/mL | 0.914
S. aureus DSM 20231 [8], first compound 2 µg/mL, partner 2.5 µg/mL | 0.841
S. aureus Newman [5], first compound 0.125 µg/mL, partner 0.625 µg/mL | 0.867
S. aureus Newman [5], first compound 0.125 µg/mL, partner 1.25 µg/mL | 0.865
S. aureus Newman [5], first compound 0.125 µg/mL, partner 2.5 µg/mL | 0.739
S. aureus Newman [5], first compound 0.25 µg/mL, partner 0.625 µg/mL | 0.869
S. aureus Newman [5], first compound 0.25 µg/mL, partner 1.25 µg/mL | 0.851
S. aureus Newman [5], first compound 0.25 µg/mL, partner 2.5 µg/mL | 0.748
S. aureus Newman [5], first compound 0.5 µg/mL, partner 0.625 µg/mL | 0.829
S. aureus Newman [5], first compound 0.5 µg/mL, partner 1.25 µg/mL | 0.834
S. aureus Newman [5], first compound 0.5 µg/mL, partner 2.5 µg/mL | 0.755
S. pneumoniae D39V [6], first compound 1 µg/mL, partner 0.25 µg/mL | 0.86
S. pneumoniae D39V [6], first compound 1 µg/mL, partner 0.5 µg/mL | 0.876
S. pneumoniae D39V [6], first compound 1 µg/mL, partner 1 µg/mL | 0.669
S. pneumoniae D39V [6], first compound 2 µg/mL, partner 0.25 µg/mL | 0.936
S. pneumoniae D39V [6], first compound 2 µg/mL, partner 0.5 µg/mL | 0.875
S. pneumoniae D39V [6], first compound 2 µg/mL, partner 1 µg/mL | 0.721
S. pneumoniae D39V [6], first compound 4 µg/mL, partner 1 µg/mL | 0.686

B. subtilis 168 [7], first compound 1 µg/mL, one replicate
Settings | fitness
partner 0.625 µg/mL | 0.783
partner 1.25 µg/mL | 0.645
partner 2.5 µg/mL | 0.197

Reference: the supplement of paper PMC10627819
